Data: the supplement of paper PMC10307832

Columns and labels:
Assay in all cases: relative viability (nuclei count vs DMSO), 5 days (fraction); higher = more cells survive
NCI-H647 = tested on: NCI-H647
Procedure, shortened: (§1)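 The day after seeding in 1536-well plates, lung cancer cell lines were treated by pin tool with a single drug, or with a fixed anchor-drug dose together with five library-drug doses (not always all listed) in √10 steps. After 5 days, a combined fix-and-stain solution (final 0.05% Triton X-100, 1% formaldehyde, 1 ug/ml Hoechst) was added. Nuclei counted on 4× images gave relative viability as treated counts over vehicle counts, reported as the median of duplicate plates.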

SK-MES-1 = tested on: SK-MES-1
Procedure, shortened: as §1

NCI-H2228 = tested on: NCI-H2228
Procedure, shortened: as §1

LC-2-ad = tested on: LC-2-ad
Procedure, shortened: as §1

NCI-H596 = tested on: NCI-H596
Procedure, shortened: as §1

NCI-H1395 = tested on: NCI-H1395
Procedure, shortened: as §1

NCI-H2170 = tested on: NCI-H2170
Procedure, shortened: as §1

HCC-366 = tested on: HCC-366
Procedure, shortened: as §1

HARA = tested on: HARA
Procedure, shortened: as §1

NCI-H1792 = tested on: NCI-H1792
Procedure, shortened: as §1

EKVX = tested on: EKVX
Procedure, shortened: as §1

HCC-44 = tested on: HCC-44
Procedure, shortened: as §1

BEN = tested on: BEN
Procedure, shortened: as §1

NCI-H1734 = tested on: NCI-H1734
Procedure, shortened: as §1

SK-LU-1 = tested on: SK-LU-1
Procedure, shortened: as §1

HCC-827 = tested on: HCC-827
Procedure, shortened: as §1

NCI-H2009 = tested on: NCI-H2009
Procedure, shortened: as §1

NCI-H2405 = tested on: NCI-H2405
Procedure, shortened: as §1

NCI-H661 = tested on: NCI-H661
Procedure, shortened: as §1

LOU-NH91 = tested on: LOU-NH91
Procedure, shortened: as §1

NCI-H1355 = tested on: NCI-H1355
Procedure, shortened: as §1

NCI-H2087 = tested on: NCI-H2087
Procedure, shortened: as §1

NCI-H1437 = tested on: NCI-H1437
Procedure, shortened: as §1

Work on `COc1cc(N2CCC(C(N)=O)CC2)ccc1Nc1nc(N)c(Cl)c(Nc2ccccc2S(=O)(=O)C(C)C)n1` [HG-5-88-01] + CS(=O)(=O)N1CCN(Cc2cc3nc(-c4cccc5[nH]ncc45)nc(N4CCOCC4)c3s2)CC1 [Pictilisib] (partner 1 µM) yielded a relative viability (NCI-H647; first compound 0.04 µM) of 0.342, a relative viability (NCI-H647; first compound 0.1265 µM) of 0.407 and a relative viability (NCI-H647; first compound 0.4 µM) of 0.453. For the same molecule, the relative viability (NCI-H647; first compound 1.265 µM) was 0.371, the relative viability (NCI-H647; first compound 4 µM) was 0.443 and the relative viability (SK-MES-1; first compound 0.04 µM) was 0.37. The relative viability (SK-MES-1; first compound 0.1265 µM) was 0.373, the relative viability (SK-MES-1; first compound 0.4 µM) was 0.354 and the relative viability (SK-MES-1; first compound 1.265 µM) was 0.282. For the same molecule, the relative viability (SK-MES-1; first compound 4 µM) was 0.299, the relative viability (NCI-H2228; first compound 0.04 µM) was 0.215 and the relative viability (NCI-H2228; first compound 0.1265 µM) was 0.177. For the same molecule, the relative viability (NCI-H2228; first compound 0.4 µM) was 0.248, the relative viability (NCI-H2228; first compound 1.265 µM) was 0.144 and the relative viability (NCI-H2228; first compound 4 µM) was 0.157. The relative viability (LC-2-ad; first compound 0.04 µM) was 0.429, the relative viability (LC-2-ad; first compound 0.1265 µM) was 0.491 and the relative viability (LC-2-ad; first compound 0.4 µM) was 0.366. For the same molecule, the relative viability (LC-2-ad; first compound 1.265 µM) was 0.448, the relative viability (LC-2-ad; first compound 4 µM) was 0.334 and the relative viability (NCI-H596; first compound 0.04 µM) was 0.447. It also gave a relative viability (NCI-H596; first compound 0.1265 µM) of 0.42, a relative viability (NCI-H596; first compound 0.4 µM) of 0.382 and a relative viability (NCI-H596; first compound 1.265 µM) of 0.414. For the same molecule, the relative viability (NCI-H596; first compound 4 µM) was 0.312, the relative viability (NCI-H1395; first compound 0.04 µM) was 0.582 and the relative viability (NCI-H1395; first compound 0.1265 µM) was 0.587. The relative viability (NCI-H1395; first compound 0.4 µM) was 0.598, the relative viability (NCI-H1395; first compound 1.265 µM) was 0.584 and the relative viability (NCI-H1395; first compound 4 µM) was 0.523. For the same molecule, the relative viability (NCI-H2170; first compound 0.04 µM) was 0.269, the relative viability (NCI-H2170; first compound 0.1265 µM) was 0.33 and the relative viability (NCI-H2170; first compound 0.4 µM) was 0.28. For the same molecule, the relative viability (NCI-H2170; first compound 1.265 µM) was 0.26, the relative viability (NCI-H2170; first compound 4 µM) was 0.261 and the relative viability (HCC-366; first compound 0.04 µM) was 0.101. For the same molecule, the relative viability (HCC-366; first compound 0.1265 µM) was 0.16, the relative viability (HCC-366; first compound 0.4 µM) was 0.0782 and the relative viability (HCC-366; first compound 1.265 µM) was 0.157. For the same molecule, the relative viability (HCC-366; first compound 4 µM) was 0.212, the relative viability (HARA; first compound 0.04 µM) was 0.438 and the relative viability (HARA; first compound 0.1265 µM) was 0.358. It also gave a relative viability (HARA; first compound 0.4 µM) of 0.414, a relative viability (HARA; first compound 1.265 µM) of 0.411 and a relative viability (HARA; first compound 4 µM) of 0.301. The relative viability (NCI-H1792; first compound 0.04 µM) was 0.372, the relative viability (NCI-H1792; first compound 0.1265 µM) was 0.272 and the relative viability (NCI-H1792; first compound 0.4 µM) was 0.313. For the same molecule, the relative viability (NCI-H1792; first compound 1.265 µM) was 0.253, the relative viability (NCI-H1792; first compound 4 µM) was 0.297 and the relative viability (EKVX; first compound 0.04 µM) was 0.444. For the same molecule, the relative viability (EKVX; first compound 0.1265 µM) was 0.426, the relative viability (EKVX; first compound 0.4 µM) was 0.372 and the relative viability (EKVX; first compound 4 µM) was 0.355. It also gave a relative viability (HCC-44; first compound 0.04 µM) of 0.695, a relative viability (HCC-44; first compound 0.1265 µM) of 0.569 and a relative viability (HCC-44; first compound 0.4 µM) of 0.542. It also gave a relative viability (HCC-44; first compound 1.265 µM) of 0.519, a relative viability (HCC-44; first compound 4 µM) of 0.375 and a relative viability (BEN; first compound 0.04 µM) of 0.504. It also gave a relative viability (BEN; first compound 0.1265 µM) of 0.523, a relative viability (BEN; first compound 0.4 µM) of 0.544 and a relative viability (BEN; first compound 1.265 µM) of 0.468. The relative viability (BEN; first compound 4 µM) was 0.447, the relative viability (NCI-H1734; first compound 0.04 µM) was 0.405 and the relative viability (NCI-H1734; first compound 0.1265 µM) was 0.423. It also gave a relative viability (NCI-H1734; first compound 0.4 µM) of 0.411, a relative viability (NCI-H1734; first compound 1.265 µM) of 0.358 and a relative viability (NCI-H1734; first compound 4 µM) of 0.476. For the same molecule, the relative viability (SK-LU-1; first compound 0.04 µM) was 0.539, the relative viability (SK-LU-1; first compound 0.1265 µM) was 0.572 and the relative viability (SK-LU-1; first compound 0.4 µM) was 0.539. It also gave a relative viability (SK-LU-1; first compound 1.265 µM) of 0.594, a relative viability (SK-LU-1; first compound 4 µM) of 0.6 and a relative viability (HCC-827; first compound 0.04 µM) of 1.02. The relative viability (HCC-827; first compound 0.1265 µM) was 0.931, the relative viability (HCC-827; first compound 0.4 µM) was 0.924 and the relative viability (HCC-827; first compound 1.265 µM) was 0.552. The relative viability (HCC-827; first compound 4 µM) was 0.56, the relative viability (NCI-H2009; first compound 0.04 µM) was 0.771 and the relative viability (NCI-H2009; first compound 0.1265 µM) was 0.882. For the same molecule, the relative viability (NCI-H2009; first compound 0.4 µM) was 0.693, the relative viability (NCI-H2009; first compound 1.265 µM) was 0.793 and the relative viability (NCI-H2009; first compound 4 µM) was 0.631. It also gave a relative viability (NCI-H2405; first compound 0.04 µM) of 0.286, a relative viability (NCI-H2405; first compound 0.1265 µM) of 0.465 and a relative viability (NCI-H2405; first compound 0.4 µM) of 0.363. The relative viability (NCI-H2405; first compound 1.265 µM) was 0.329, the relative viability (NCI-H2405; first compound 4 µM) was 0.451 and the relative viability (NCI-H661; first compound 0.04 µM) was 0.43. It also gave a relative viability (NCI-H661; first compound 0.1265 µM) of 0.477, a relative viability (NCI-H661; first compound 0.4 µM) of 0.469 and a relative viability (NCI-H661; first compound 4 µM) of 0.418. It also gave a relative viability (LOU-NH91; first compound 0.04 µM) of 0.495, a relative viability (LOU-NH91; first compound 0.1265 µM) of 0.514 and a relative viability (LOU-NH91; first compound 0.4 µM) of 0.513. For the same molecule, the relative viability (LOU-NH91; first compound 1.265 µM) was 0.482, the relative viability (LOU-NH91; first compound 4 µM) was 0.401 and the relative viability (NCI-H1355; first compound 0.04 µM) was 0.253. For the same molecule, the relative viability (NCI-H1355; first compound 0.1265 µM) was 0.462, the relative viability (NCI-H1355; first compound 0.4 µM) was 0.412 and the relative viability (NCI-H1355; first compound 1.265 µM) was 0.414. For the same molecule, the relative viability (NCI-H1355; first compound 4 µM) was 0.299, the relative viability (NCI-H2087; first compound 0.04 µM) was 0.835 and the relative viability (NCI-H2087; first compound 0.1265 µM) was 1.08. The relative viability (NCI-H2087; first compound 0.4 µM) was 0.928, the relative viability (NCI-H2087; first compound 1.265 µM) was 0.771 and the relative viability (NCI-H2087; first compound 4 µM) was 0.9. The relative viability (NCI-H1437; first compound 0.04 µM) was 0.519, the relative viability (NCI-H1437; first compound 0.1265 µM) was 0.431 and the relative viability (NCI-H1437; first compound 0.4 µM) was 0.436. It also gave a relative viability (NCI-H1437; first compound 1.265 µM) of 0.416 and a relative viability (NCI-H1437; first compound 4 µM) of 0.264.
